{
  "source": "patent US9682947B2",
  "about": "“Substituted lactones for treating cancer” (KUNMING INSTITUTE OF BOTANY, CHINESE ACADEMY OF SCIENCES, priority 2013, dated 2017)",
  "key": {"p53, p21 and Bax": {"tested_on": "p53, p21 and Bax", "assay": "Western Blotting, p53, p21 and Bax expression in HCT116 cells", "assay_type": "cell-based, human", "details": "HCT116 WT, 16 μM", "experimental": "(§1) Cellular protein extracts were prepared with cell lysis buffer (10 mM Tris-HCl, pH 7.4, 1% SDS, 1 mM Na3VO4) and resolved by SDS-PAGE. The membranes were probed with the indicated primary antibodies and HRP-conjugated secondary antibody. Signals were detected with the ECL western-blotting system as described in our previous reports (1.27, 1.28)."}, "FoxO3a": {"tested_on": "FoxO3a", "assay": "FoxO3a transcription activity dependent luciferase (4×DBE) reporter assay in HCT116 cells", "assay_type": "cell-based, human", "details": "HCT116, 16 μM", "experimental": "(§2) HCT116 cells stably expressing the luciferase reporter constructs were seeded into 96-well plates (5×10^3/well) and subjected to compound treatment when the cultures reached 80˜90% confluence. Cellular lysates were prepared at the indicated time points, and the luciferase activities were determined by a luminometer (Wallac 1420 Victor 2 multilabel counter system) as described in our previous studies (2.24, 2.25). The results are expressed as a relative activity that is normalized to the control cells without treatment."}, "HCT116 PUMA−/− cells [1]": {"tested_on": "HCT116 PUMA−/− cells", "assay": "Flow cytometry assay with propidium iodide staining (apoptosis)", "assay_type": "cell-based", "details": "Homo sapiens, HCT-116, 48 h, read-out: inhibition of cell apoptosis in PUMA−/− cells as compared to HCT116 WT", "experimental": "(§3) Flow cytometry assay was assessed as previously described in reference (1.26). After the time periods indicated, the Compound X-treated and control cells were harvested and fixed in 75% ethanol. The fixed cells were stained in the buffer containing 0.1% Triton X-100, 0.2 mg/ml RNase A, and 50 μg/ml PI (propidium iodide) at 4° C. for 1 hour and were then examined by flow cytometry utilizing an Epics XL FACS (Beckman Coulter Inc., Miami, Fla.) and EXPO 32 software as described previously (1.26).\n(§4) Flow cytometry assay was carried out as described in Example 1."}, "AKT": {"tested_on": "AKT", "assay": "Western blot, AKT phosphorylation in HCT116 cells", "assay_type": "cell-based, human", "details": "HCT116, 16 μM", "experimental": "as §1\n(§5) See Example 1 for the method."}, "Cl41 cells [2]": {"tested_on": "Cl41 cells", "assay": "Cell cycle assay (flow cytometry, PI)", "assay_type": "cell-based, mouse", "details": "24 h, control 63.49%", "experimental": "Cell cycle assay was assessed as previously described in reference (3.16). After the time periods indicated, the Compound X-treated and control cells were harvested and fixed in 75% ethanol. The fixed cells were stained with propidium iodide (PI) solution at 4° C. for 30 minutes and were then examined by flow cytometry utilizing an Epics XL FACS (Beckman Coulter Inc., Miami, Fla.) and EXPO 32 software as described previously (3.17).\nTo assess whether the inhibitory effects of Compound F on growth inhibition of Cl41 cells is mediated via alteration in cell cycle regulation, the inventors evaluated the effect of Compound F2 on cell cycle distribution. The Cl41 cells were synchronized by 0.1% FBS medium for 24 h, and then cultured with 1% FBS medium containing 8, 16, 32 μM of Compound F2 for 24 h."}, "p21 and p53": {"tested_on": "p21 and p53", "assay": "Western Blot, p21 and p53 expression in Cl41 cells", "assay_type": "cell-based, mouse", "details": "Cl41, 2 to 32 μM, 24 hours", "experimental": "as §1, §5"}, "HCT116 Bax−/− cells [3]": {"tested_on": "HCT116 Bax−/− cells", "assay": "Flow cytometry assay with propidium iodide staining (apoptosis)", "assay_type": "cell-based, human", "details": "48 h", "experimental": "as §3"}, "HCT116 p21−/− cells": {"tested_on": "HCT116 p21−/− cells", "assay": "Flow cytometry assay with propidium iodide staining (apoptosis)", "assay_type": "cell-based, human", "details": "32 μM, 48 h", "experimental": "as §3"}, "HCT116 p53−/− cells": {"tested_on": "HCT116 p53−/− cells", "assay": "Flow cytometry assay with propidium iodide staining (apoptosis)", "assay_type": "cell-based, human", "details": "48 h", "experimental": "as §3"}, "PUMA": {"tested_on": "PUMA", "assay": "Western Blot, PUMA induction in WT and p53−/− HCT116 cells", "assay_type": "cell-based, human", "details": "16 μM", "experimental": "as §1, §5"}, "p21 promoter": {"tested_on": "p21 promoter", "assay": "p21 promoter-driven luciferase reporter in Cl41 cells", "assay_type": "cell-based, mouse", "details": "Cl41, 16 μM, time-dependent"}, "puma promoter": {"tested_on": "puma promoter", "assay": "PUMA promoter-driven luciferase reporter assay in HCT116 cells", "assay_type": "cell-based, human", "details": "HCT116, 16 μM", "experimental": "as §2"}, "caspase-3 and PARP": {"tested_on": "caspase-3 and PARP", "assay": "Western Blotting, cleavage of caspase 3 and PARP", "assay_type": "cell-based, human", "details": "16 μM, colon cancer cells", "experimental": "as §1"}, "HCT116 Bax−/− cells [4]": {"tested_on": "HCT116 Bax−/− cells", "assay": "Anchorage-independent growth (soft agar) assay", "assay_type": "cell-based, human", "details": "soft agar 14 days", "experimental": "(§6) Anchorage-independent growth (soft agar assay) in soft agar was carried out as described in inventors' previous studies (1.25). Briefly, 1×10^4 cells mixed with various concentration of Compound X in 10% FBS BME containing 0.33% soft agar, was seeded over bottom layer of 0.5% agar in 10% FBS BME in each well of 6-well plates. […]"}, "PHLPP1": {"tested_on": "PHLPP1", "assay": "Western blot, PHLPP1 protein expression in HCT116 cells", "assay_type": "cell-based, human", "details": "HCT116, 16 μM", "experimental": "as §1, §5"}, "DLD-1 cells [5]": {"tested_on": "DLD-1 cells", "assay": "Flow cytometry assay with propidium iodide staining (apoptosis)", "assay_type": "cell-based, human", "details": "DLD-1, 16 μM or 32 μM, 48 hours", "experimental": "as §3, §4"}, "HCT116 wild-type cells": {"tested_on": "HCT116 wild-type cells", "assay": "Flow cytometry assay with propidium iodide staining (apoptosis)", "assay_type": "cell-based, human", "details": "48 h; for cell apoptosis: HCT116 WT", "experimental": "as §3, §4"}, "HT-29 cells [6]": {"tested_on": "HT-29 cells", "assay": "Flow cytometry assay with propidium iodide staining (apoptosis)", "assay_type": "cell-based, human", "details": "HT-29, 16 μM or 32 μM, 48 hours", "experimental": "as §3, §4"}, "Cl41 cells [7]": {"tested_on": "Cl41 cells", "assay": "EGF-induced cell transformation assay in soft agar", "assay_type": "cell-based, mouse", "details": "Cl41, 20 ng/ml EGF, dose-dependent", "experimental": "Anchorage-independent growth in soft agar was performed as described previously (3.15). Briefly, 2×10^4 cells mixed with various concentration of Compound X and 20 ng/ml EGF in 10% FBS […] (BMEM) containing 0.33% soft agar, was seeded over bottom layer of 0.5% agar in 10% FBS BMEM in each well of 6-well plates. The plates were incubated in 5% CO2 incubator at 37° C. for 3 weeks, and the colonies with more than 16 cells of each were scored and presented as colonies/1×10^4 cells."}, "p53": {"tested_on": "p53", "assay": "p53-luciferase reporter (PG13-luc) in Cl41 cells", "assay_type": "cell-based, mouse", "details": "Cl41, 16 μM"}, "HCT116 PUMA−/− cells [8]": {"tested_on": "HCT116 PUMA−/− cells", "assay": "Anchorage-independent growth (soft agar) assay", "assay_type": "cell-based, human", "details": "HCT116 PUMA−/−, 16, 32 μM, soft agar 2 weeks", "experimental": "as §6\n(§7) Anchorage-independent growth (soft agar assay) in soft agar was carried out as described in Example 1."}, "DLD-1 cells [9]": {"tested_on": "DLD-1 cells", "assay": "Anchorage-independent growth (soft agar) assay", "assay_type": "cell-based, human", "details": "DLD-1 (p53 mutant), 16, 32 μM, soft agar 2 weeks", "experimental": "as §6, §7"}, "HCT116 cells": {"tested_on": "HCT116 cells", "assay": "Anchorage-independent growth (soft agar) assay", "assay_type": "cell-based, human", "details": "HCT116, 16 and 32 μM, soft agar 2 weeks", "experimental": "as §6, §7"}, "HT-29 cells [10]": {"tested_on": "HT-29 cells", "assay": "Anchorage-independent growth (soft agar) assay", "assay_type": "cell-based, human", "details": "HT-29 (p53 mutant), 16, 32 μM, soft agar 2 weeks", "experimental": "as §6, §7"}, "[11]": {"details": "mice; cited from earlier work"}, "leukemia cell": {"tested_on": "leukemia cell", "details": "involving activation of caspase-3 and downregulation of Bcl-2 mRNA; cited from earlier work"}},
  "note": "“Also recorded” adds a separate entry of the source.",
  "data": [
    {"smiles": "CC(=O)O[C@H]1C=CC(=O)O[C@H]1[C@@H](O)[C@H](F)c1ccccc1", "note": "[Compound F2]", "values": [
      {"measurement": "p53, p21 and Bax protein levels", "setting": "p53, p21 and Bax", "value": "increasing as time-dependent manner"},
      {"measurement": "FoxO3a transactivation", "setting": "FoxO3a", "value": "significantly induced FoxO3a transactivation"},
      {"measurement": "inhibition at 16 µM", "setting": "HCT116 PUMA−/− cells [1]", "value": "> 90", "unit": "%"},
      {"measurement": "phosphorylation of AKT at Ser 473", "setting": "AKT", "value": "inhibited after exposure to Compound F2 for 12 h or longer"},
      {"measurement": "proportion of cells in the G0/G1 phase", "setting": "Cl41 cells [2]; 8 μM", "value": 77.74, "unit": "%"},
      {"measurement": "proportion of cells in the G0/G1 phase", "setting": "Cl41 cells [2]; 16 μM", "value": 79.79, "unit": "%"},
      {"measurement": "proportion of cells in the G0/G1 phase", "setting": "Cl41 cells [2]; 32 μM", "value": 80.13, "unit": "%"},
      {"measurement": "expression levels of p21 and p53", "setting": "p21 and p53", "value": "increased"},
      {"measurement": "cell apoptosis", "setting": "HCT116 Bax−/− cells [3]; 16 μM", "value": 1.00, "unit": "%"},
      {"measurement": "cell apoptosis", "setting": "HCT116 Bax−/− cells [3]; 32 μM", "value": 0.69, "unit": "%"},
      {"measurement": "cell apoptosis", "setting": "HCT116 p21−/− cells", "value": 80.31, "unit": "%"},
      {"measurement": "cell apoptosis", "setting": "HCT116 p53−/− cells; 16 μM", "value": 7.41, "unit": "%"},
      {"measurement": "cell apoptosis", "setting": "HCT116 p53−/− cells; 32 μM", "value": 14.18, "unit": "%"},
      {"measurement": "PUMA protein induction, time", "setting": "PUMA", "value": "≤ 12", "unit": "h"},
      {"measurement": "p21 promoter transcription activity", "setting": "p21 promoter", "value": "obvious induction of p21 promoter transcription activity"},
      {"measurement": "puma promoter transcription activity", "setting": "puma promoter", "value": "markedly induction of puma promoter transcription activity"},
      {"measurement": "cleaved caspases-3 and PARP", "setting": "caspase-3 and PARP", "value": "detected in a time-dependent manner from 24 h to 48 h; also recorded: detected in a time-dependent manner from 6 hours to 48 hours"},
      {"measurement": "colony formation", "setting": "HCT116 Bax−/− cells [4]", "value": "only partially inhibit colony formation"},
      {"measurement": "PHLPP1 protein expression", "setting": "PHLPP1", "value": "upregulated"},
      {"measurement": "sub-G1 DNA content (apoptotic peak) vs vehicle control", "setting": "DLD-1 cells [5]", "value": "substantial increase in sub-G1 DNA content"},
      {"measurement": "sub-G1 DNA content (apoptotic peak) vs vehicle control", "setting": "HCT116 wild-type cells; HCT116, 16 μM or 32 μM", "value": "substantial increase in sub-G1 DNA content"},
      {"measurement": "cell apoptosis", "setting": "HCT116 wild-type cells; 16 μM", "value": 18.30, "unit": "%"},
      {"measurement": "cell apoptosis", "setting": "HCT116 wild-type cells; 32 μM", "value": 26.27, "unit": "%"},
      {"measurement": "sub-G1 DNA content (apoptotic peak) vs vehicle control", "setting": "HT-29 cells [6]", "value": "substantial increase in sub-G1 DNA content"},
      {"measurement": "EGF-induced cell transformation and colony formation on soft agar", "setting": "Cl41 cells [7]", "value": "significantly repressed EGF-induced cell transformation and colony formation"},
      {"measurement": "p53 transactivation", "setting": "p53", "value": "significantly induced p53 transactivation"},
      {"measurement": "colony formation, sensitivity vs wild type cells", "setting": "HCT116 PUMA−/− cells [8]", "value": "significantly more resistant"},
      {"measurement": "anchorage-independent growth", "setting": "DLD-1 cells [9]", "value": "inhibit anchorage-independent growth"},
      {"measurement": "anchorage-independent growth (size and number of colonies) vs vehicle", "setting": "HCT116 cells", "value": "significantly restrained the size and number of colonies; also recorded: significantly decreased anchorage-independent growth"},
      {"measurement": "anchorage-independent growth", "setting": "HT-29 cells [10]", "value": "inhibit anchorage-independent growth"}
    ]},
    {"smiles": "CC(=O)O[C@H]1C=CC(=O)O[C@H]1C1OC1c1ccccc1", "note": "(some centres unmarked) [cheliensisin A, Cheliensisin A]", "values": [
      {"measurement": "in vivo antitumor effect", "setting": "[11]", "value": "potent in vivo antitumor effect"},
      {"measurement": "leukemia cell apoptosis", "setting": "leukemia cell", "value": "induced leukemia cell apoptosis"}
    ]}
  ]
}
